The results in this text go back to publication PMC9692523, “Exposure to (Poly)phenol Metabolites after a Fruit and Vegetable Supplement Intake: A Double-Blind, Cross-Over, Randomized Trial” (Nutrients, 2022).

The nature of data set [1]: Plasma pharmacokinetics of phenolic metabolites after one 450 mg capsule of the supplement (UHPLC-ESI-MS/MS). It counts as in vivo, human. The conditions noted are these: for Cmax / Tmax / Tpres (time of presence of metabolites in circulation): n = 10, mean ± SEM; for Tpres (time of presence of metabolites in circulation): interval between first and last appearance; for AUC0-24: supplemented volunteers (n = 10), 450 mg capsule, mean ± SEM. The procedure:
(§1) This study was designed as a 3-week randomized, double-blind, cross-over clinical trial. Eligible participants were randomized using simple block randomization of 1:1. Once enrolled, subjects received either one 450 mg capsule of the test supplement or one 450 mg capsule of placebo on the first day of the study (Phase I: D1). After three days of sampling, volunteers started a wash-out period of 1 week and were then enrolled for the second test Phase with ingestion of the opposite supplement (Phase II: D1) (Figure 1). The placebo product was 100% maltodextrin, which was (poly)phenol-free.
On the day of the test (D1), volunteers visited the Research Center after an overnight fast. Blood was collected at T0 to determine baseline levels of plasma phenolic metabolites. Then, volunteers were invited to take the 450 mg capsule of the supplement or the placebo with 250 mL of still water (Figure 2). Additional blood samples were then collected at 1 h (D1, T1), 2 h (D1, T2), 3 h (D1, T3), 4 h (D1, T4), 5 h (D1, T5), 6 h (D1, T6), 8 h (D1, T8), 10 h (D1, T10) and 24 h (D2, T24) after capsule intake. Blood was taken from the basilica vein and centrifuged at 3000 rpm for 10 min at 4 °C. Plasma was immediately extracted and frozen at −80 °C for further analysis.
Plasma samples were then extracted using a solid phase extraction (SPE) method, as previously reported by Castello and colleagues. Briefly, 350 µL of plasma samples was diluted (1:1) with phosphoric acid 4% (v/v). After plate activation, 600 µL of the diluted plasma samples was loaded on a 96 well µ-SPE HLB (Oasis® HLB µElution Plate 30 µm, Waters, Milford, Massachusetts, MA, USA). Samples were washed with 200 µL of water and 200 µL of 0.2% (v/v) acetic acid. Finally, samples were eluted with 60 µL of methanol for UHPLC-ESI-MS/MS analysis.
(§2) Plasma and urine samples were analyzed by a UHPLC DIONEX Ultimate 3000 equipped with a triple quadrupole TSQ Vantage (Thermo Fisher Scientific Inc) fitted with a heated ESI (H-ESI) (Thermo Fisher Scientific Inc) probe, as previously reported. Separations were carried out by means of a Kinetex EVO C18 (100 × 2.1 mm) column, 2.6 µm particle size (Phenomenex, Torrance, CA, USA), installed with a pre-column (Phenomenex). Mobile phase A was 0.2% formic acid in water, and mobile phase B was acetonitrile containing 0.2% formic acid. The gradient started with 5% B, and isocratic conditions were maintained for 0.5 min, reaching 95% B after 6.5 min, followed by 1 min at 95%. The starting gradient was then immediately re-established and maintained for 5 min to re-equilibrate the column. The flow rate was 0.4 mL/min, the injection volume was 5 µL and the column temperature was set at 40 °C.
(§3) The applied MS method consisted of the selective determination of each target precursor ion by the acquisition of characteristic product ion in selective reaction monitoring (SRM) mode (Supplemental Table S2). For all the analyses, the spray voltage was set at 3 kV, the vaporizer temperature at 300 °C and the capillary temperature operated at 270 °C. The sheath gas flow was 50 units, and auxiliary gas pressure was set to 10 units. Ultra-high purity argon gas was used for collision-induced dissociation (CID). The S-lens values were defined for each compound based on infusion parameter optimization. Conversely, for those compounds not available for infusion, the S-lens values were set using the values obtained for the chemically closest available standards. Quantification was performed with calibration curves of standards when available or using the most structurally similar compound. Data processing was performed using Xcalibur software (Thermo Scientific Inc., San Jose, CA, USA).
All data were expressed as mean values ± standard deviation (SD) and mean values ± standard error to the mean (SEM) for metabolites in blood and urine samples. […]

The nature of data set [2]: Urinary excretion of phenolic metabolites over 48 h after one 450 mg capsule of the supplement (UHPLC-ESI-MS/MS). The conditions noted are these: for Urinary excretion 0 (h) / Urinary excretion 0–3 (h) / Urinary excretion 3–6 (h) / Urinary excretion 6–10 (h) / Urinary excretion 10–14 (h) / Urinary excretion 14–24 (h) / Urinary excretion 24–32 (h) / Urinary excretion 32–48 (h) / Urinary excretion Total (0–48 h): urine, n = 10, mean ± SEM; for Urinary excretion 0 (h): baseline (day before). Format: in vivo, human. Here is the method:
as §1
Urine samples were collected the day before (baseline) and during the 48 h period following the supplementation (T0-T3, T3-T6, T6-T10, T10-T14, T14-T24, T24-T32 and T32-T48) (Figure 2). Urine volumes at each collection period were registered, and samples were aliquoted and stored at −80 °C until further processing.
Then, urine samples were prepared as previously reported by Brindani and colleagues. Briefly, urine samples were defrosted, vortexed, diluted in 0.1% formic acid in water (1:4, v/v) and centrifuged at 12,000 rpm for 5 min. Finally, urine samples were filtered (0.45 µm nylon filter) prior to UHPLC-ESI-MS/MS analysis.
as §2, §3
All data were expressed as mean values ± standard deviation (SD) and mean values ± standard error to the mean (SEM) for metabolites in blood and urine samples. PKSolver add-on program in Microsoft Excel was used to determine pharmacokinetic parameters of blood phenolic metabolites, including time to reach the maximum plasma concentration (Tmax, h), maximum plasma concentration (Cmax, nmol/L), area under the curve (AUC0-24, nmol/L·h), and time of presence of metabolites in circulation (Tpres, h). Tpres was calculated by taking the time interval between the first appearance and the last appearance of the considered metabolite. Coefficient of variation (CV) was evaluated for each metabolite and multivariate principal component analysis (PCA) was applied to explore the inter-individual variation in the urinary metabolites among the participants. […]

For `O=C1CCC(Cc2ccc(OS(=O)(=O)O)c(O)c2)O1` (stereo not shown) [compound 21], in data set [1], the Cmax – broadly, the peak of the concentration-time curve – is 40 ± 16.9 nM; the Tmax (usually the time from dosing to the highest level) amounted to 7.00 ± 0.75 h; the “Tpres (time of presence of metabolites in circulation)” value (“Tpres” for short) is 12.15 ± 1.84 h; the AUC0-24 was 0.1417 ± 0.05037 µM·h. In data set [2], the “Urinary excretion 0 (h)” value was determined as 344.60 ± 186.50 µg, the “Urinary excretion 0–3 (h)” value came out at 166.29 ± 126.77 µg, the “Urinary excretion 3–6 (h)” value is 2548.76 ± 1207.06 µg and the “Urinary excretion 6–10 (h)” value stood at 2277.16 ± 795.52 µg. In addition, in data set [2], the “Urinary excretion 10–14 (h)” value stood at 919.49 ± 314.48 µg, the “Urinary excretion 14–24 (h)” value came to 3618.13 ± 985.44 µg, the “Urinary excretion 24–32 (h)” value was found to be 1346.37 ± 481.02 µg and the “Urinary excretion 32–48 (h)” value was 389.78 ± 215.48 µg. Also, the “Urinary excretion Total (0–48 h)” value in data set [2] is recorded as 11,610.60 ± 1923.81 µg.
For the compound `O=C(O)C1OC(Oc2cc(CCO)ccc2O)C(O)C(O)C1O` (stereo not shown) [compound 33], in data set [1], the Cmax was determined as 24.9 ± 5.63 nM, the Tmax turned out to be 1.45 ± 0.32 h, the “Tpres” value amounted to 8.45 ± 2.19 h and the AUC0-24 was 0.05092 ± 0.00585 µM·h. Further, in data set [2] (collection interval post-consumption), the “Time of maximum (peak) urinary excretion” value lay in the range of 3 to 6 h. Moreover, in data set [2], the “Urinary excretion 0–3 (h)” value came out at 53.75 ± 15.51 µg, the “Urinary excretion 3–6 (h)” value turned out to be 69.04 ± 13.20 µg, the “Urinary excretion 6–10 (h)” value turned out to be 38.02 ± 8.17 µg and the “Urinary excretion 10–14 (h)” value came to 10.90 ± 3.90 µg. In data set [2], the “Urinary excretion 14–24 (h)” value amounted to 10.23 ± 3.71 µg, the “Urinary excretion 24–32 (h)” value stood at 0.75 ± 0.75 µg and the “Urinary excretion Total (0–48 h)” value worked out at 182.69 ± 19.99 µg.
For the compound `O=C1CCC(Cc2cc(O)cc(OS(=O)(=O)O)c2)O1` (stereo not shown) [compound 16], in data set [1], the Cmax came to 9.97 ± 4.31 nM, the Tmax came out at 8.88 ± 2.41 h, the “Tpres” value is listed as 10.57 ± 2.72 h and the AUC0-24 was determined as 0.03046 ± 0.01185 µM·h. Moreover, in data set [2], the “Urinary excretion 0 (h)” value was determined as 18.25 ± 10.84 µg, the “Urinary excretion 0–3 (h)” value is given as 4.64 ± 3.47 µg, the “Urinary excretion 3–6 (h)” value came out at 439.69 ± 219.42 µg and the “Urinary excretion 6–10 (h)” value is 1256.55 ± 516.93 µg. Also, in data set [2], the “Urinary excretion 10–14 (h)” value was found to be 944.18 ± 474.02 µg, the “Urinary excretion 14–24 (h)” value turned out to be 3986.28 ± 711.64 µg, the “Urinary excretion 24–32 (h)” value stood at 1721.60 ± 393.97 µg and the “Urinary excretion 32–48 (h)” value is 586.15 ± 240.93 µg. Further, the “Urinary excretion Total (0–48 h)” value in data set [2] stood at 8957.33 ± 1361.49 µg.
For `O=C(O)CCc1ccc(O)c(OS(=O)(=O)O)c1` [compound 41], in data set [1], the Cmax was 18.2 ± 11.3 nM, the time of peak concentration (Tmax) was 4.56 ± 1.13 h, the “Tpres” value stood at 9.06 ± 2.56 h and the AUC0-24 stood at 0.02741 ± 0.01121 µM·h. For the same compound, in data set [2], the “Urinary excretion 0 (h)” value is reported as 27.49 ± 27.49 µg, the “Urinary excretion 0–3 (h)” value was found to be 101.08 ± 52.47 µg, the “Urinary excretion 3–6 (h)” value came to 103.59 ± 54.34 µg and the “Urinary excretion 6–10 (h)” value was 41.08 ± 16.51 µg. Also, in data set [2], the “Urinary excretion 10–14 (h)” value was 56.67 ± 24.78 µg, the “Urinary excretion 14–24 (h)” value amounted to 389.70 ± 95.00 µg, the “Urinary excretion 24–32 (h)” value worked out at 208.69 ± 73.47 µg and the “Urinary excretion 32–48 (h)” value was 289.45 ± 118.16 µg. Also, the “Urinary excretion Total (0–48 h)” value in data set [2] was determined as 1217.76 ± 256.95 µg.
`O=C(O)CCc1cccc(O)c1.O=C(O)CCc1cccc(O)c1` [compound 40]: in data set [1], the Cmax came to 443 ± 99.3 nM, the Tmax is 7.13 ± 0.77 h, the “Tpres” value is listed as 7.50 ± 2.38 h and the AUC0-24 stood at 1.55429 ± 0.64433 µM·h. Moreover, in data set [2], the “Urinary excretion 0 (h)” value was determined as 96.20 ± 96.20 µg, the “Urinary excretion 0–3 (h)” value was determined as 85.67 ± 85.67 µg, the “Urinary excretion 10–14 (h)” value was determined as 287.94 ± 287.94 µg and the “Urinary excretion 14–24 (h)” value came out at 262.06 ± 138.26 µg. In data set [2], the “Urinary excretion 32–48 (h)” value is given as 676.70 ± 383.40 µg and the “Urinary excretion Total (0–48 h)” value came to 1408.57 ± 544.97 µg.
